The results in this text go back to patent US20240226319A1, “EGFR TARGETING FC ANTIGEN BINDING FRAGMENT-DRUG CONJUGATES” (MERCK PATENT GMBH, priority 2021, published 2024).

In data set [1] the test system is EGFR positive (MDA MB 468 and A431) and EGFR negative (MCF 7) cells. As to the kind of experiment: Cellular binding analysis by flow cytometry. It counts as cell-based, human. To be noted: 100 nM, 60 min at 4° C., AF488-labeled detection antibody. In general terms: Flow cytometry measures light scatter and fluorescence of single cells or particles in a stream.
Data set [2] can be described thus: Thermal unfolding by nanoDSF. It is filed as physicochemical. To be noted: PBS pH 6.8, 20 to 95° C. at 1° C./min. On the procedure:
FIG. 10 Thermal stability of Fcabs and huFc control molecule. The first derivative of thermal unfolding curves (A) as well as the unfolding transition midpoints (Tm) (B) are shown. To determine thermal unfolding, Fcabs and huFc (PBS pH 6.8) were loaded into nanoDSF grade standard capillaries which were then transferred into a Prometheus NT.PLEX nanoDSF (NanoTemper Technologies) instrument. Samples were subjected to a linear thermal ramp from 20° C. to 95° C. at a slope of 1° C./min with simultaneous recording of fluorescence at 350 and 330 nm. Unfolding transition midpoints (Tm) were determined from the first derivative of the fluorescence ratio 350 nm/330 nm. All samples were measured in duplicates. n.d.—not detected
As a negative control, we included an unmodified human Fc (huFc) fragment. As EGFR-binding references, a Cetuximab-based full length IgG (C-IgG) and a Cetuximab-derived Fab (C-Fab) fragment, both equipped with a sortase A (SrtA) recognition motif (LPETG) at the C-terminal end of the light chain, were included. […] Moreover, we evaluated functional and selective cellular binding of the purified constructs (FIG. 11, FIG. 12). […] To ensure comparability between individual fluorescence intensities resulting from differently labeled constructs, the fluorescence signals were normalized. […]
(In general: DSF heats the sample and reads unfolding from a dye or from intrinsic fluorescence.)

Regarding “huFc: Modified human IgG1 Fc fragment (D265A), negative control, SEQ ID No. 7”, the cellular binding result in data set [1] is recorded as “do not show any binding”. Further, the “unfolding transition midpoint Tm,1” value in data set [2] was 66 °C.
